# Test results as given in PubChem BioAssay AID1963838 (Molecular Pharmacology Branch, DTP, NCI, 2024).
# “And” between values parts separate entries of the source, which are not always exact repeats. Identical values can stand only once.
# Tested on: 855422-203-R-J1-PDC complex spheroid viability
# Experiment: Anticancer human tumor 855422-203-R-J1-PDC patient-derived bladder carcinoma cell line growth inhibition [POLQ]
# Conditions: for viability, T/C: stronger effect = lower value
# Experimental: Multicellular complex tumor spheroid response to Polymerase (POL) inhibitors (novobiocin, ART-558, RP6685) in combination with a variety of drugs and investigational agents in selected tumor cell lines
# The POL inhibitors (novobiocin, ART-558, and RP6685) were evaluated both individually and in combination with standard of care and investigational anticancer small molecules within a complex spheroid model of solid tumors. . Complex spheroids include a stromal component modeled by human endothelial cells (HUVEC) and fibroblasts modeled by human mesenchymal stem cells (MSCs). The concentration ranges selected for each drug and investigational agent were based upon clinically achievable concentrations if the clinical Cmax of the agent was known.
# Compounds. The drugs and investigational agents: novobiocin (NSC847541), ART-558 (NSC835418), RP-6685 (NSC848927), peposertib (NSC802822), ceralasertib (NSC780249), elimusertib (NSC800525), camonsertib (NSC841442), AZD-1390 (NSC803789), olaparib (NSC753686), talazoparib (NSC767125), rucaparib (NSC756644), sotorasib (NSC818433), MRTX-1133 (NSC836407), SN-38 (NSC673596), topotecan (NSC609699), epotoside (NSC141540), doxorubicin (NSC123127), gemcitabine (NSC613327), 5-fluorouracil (NSC19893), paclitaxel (NSC125973), vemurafenib (NSC761431), MSA-2 (NSC828583), SN-011 (NSC837082), adavosertib (NSC754352), prexasertib (NSC758257), carboplatin (NSC241240) and oxaliplatin (NSC266046), were obtained from the National Cancer Institute (NCI) Developmental Therapeutics Program Chemical Repository (21). The FDA-approved anticancer drug set is available from the Developmental Therapeutics Program at https://dtp.cancer.gov/organization/dscb/obtaining/. […] The stock solutions were prepared in dimethyl sulfoxide (DMSO, Sigma-Aldrich, St. Louis, MO, cat. D2650), except for the platinum compounds which were prepared in saline (Quality Biological, Gaithersburg, MD, cat. 114-055-101), at 800-fold the tested concentration and stored at -70 degrees C prior to their use. All drugs and investigational agents were tested over a range starting from a high concentration at or near the clinical Cmax and decreasing in half-log increments. If the clinical Cmax for an agent had not been determined, the highest concentration tested was 10 microM, except for SN-38, which was tested at a high concentration of 1 microM.
# Cell Culture. All cells were maintained in an incubator at 37 degrees C and 5% CO2 with 95% humidity. The PDC lines were cultured according to standard operating procedures established by the NCI PDMR (https://pdmr.cancer.gov). Table 3 of the manuscript, lists the cell lines along with the number of the three cell types plated to form the mct-spheroids and media for tumor cell growth. After thawing, all PDC lines, except 997537-175-T-J1-PDC and 415267-285-R-J2-PDC, were cultured in Matrigel-coated flasks prepared with a working solution of 1X Ham's F-12 nutrient mix, without supplementation (Thermo Fisher Scientific, cat. 11765054), 100 U/mL penicillin-streptomycin (Thermo Fisher Scientific, cat. 15140122), and 2.5% Matrigel (Corning Inc., Corning, NY, cat. 354248) for the first three passages. The two PDC lines 997537-175-T-J1-PDC and 415267-285-R-J2-PDC were cultured on uncoated flasks. The 857933-349-R-J2-PDC line was cultured in 6C/Colon 1B media containing advanced DMEM/F-12 (Thermo Fisher Scientific, cat. 12634028), 10 mM HEPES (Thermo Fisher Scientific, cat. 15630080), 1X GlutaMAX supplement (Thermo Fisher Scientific, cat. 35050061), 0.1 mg/mL primocin (InvivoGen, San Diego, CA, cat. ant-pm-2), 10% defined fetal bovine serum, heat inactivated (HyClone Laboratories Inc., Logan, UT, cat. SH30070.03HI), 50% L-WRN conditioned media (ATCC, cat. CRL-3276), 1.25 mM N-Acetyl-L-cysteine (Sigma-Aldrich, cat. A9165), 10 mM nicotinamide (Sigma-Aldrich, cat. N0636), 1X B-27 supplement (Thermo Fisher Scientific, cat. 17504044), 1X N-2 supplement (Thermo Fisher Scientific, cat. […]
# [1] = curve of first compound, second compound 0.0316 µM
# [2] = curve of first compound, second compound 0.1 µM
# [3] = curve of first compound, second compound 0.316 µM
# [4] = curve of first compound, second compound 1 µM
# [5] = curve of first compound, second compound 3.16 µM
# [6] = curve of first compound, second compound 10 µM
# 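Note: spheroids exposed to compounds for seven days before readout.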
compound,measurement,setting,value
CC1COCCN1c1cc(C2(O)CC3CCC(C2)O3)c2cnn(-c3ccn[nH]3)c2n1 (configuration not stated) + Cc1cccc(N(C)C(=O)C2C(O)CCN2c2nc(C)cc(C(F)(F)F)c2C#N)c1,IC50,[1],93.8 nM
same,IC50,[2],90.1 nM
same,IC50,[3],88.2 nM
same,IC50,[4],89.8 nM
same,IC50,[5],91.1 nM
same,IC50,[6],83.4 nM
same,"viability, T/C","second compound 0.0316 µM, first compound 0.0316 µM",109%
same,"viability, T/C","second compound 0.0316 µM, first compound 0.1 µM",46.7%
same,"viability, T/C","second compound 0.0316 µM, first compound 0.316 µM",14.1%
same,"viability, T/C","second compound 0.0316 µM, first compound 1 µM",9.62%
same,"viability, T/C","second compound 0.0316 µM, first compound 3.16 µM",6.47%
same,"viability, T/C","second compound 0.0316 µM, first compound 10 µM",3.79%
same,"viability, T/C","second compound 0.1 µM, first compound 0.0316 µM",91.8%
same,"viability, T/C","second compound 0.1 µM, first compound 0.1 µM",45.9%
same,"viability, T/C","second compound 0.1 µM, first compound 0.316 µM",12.6%
same,"viability, T/C","second compound 0.1 µM, first compound 1 µM",9%
same,"viability, T/C","second compound 0.1 µM, first compound 3.16 µM",6.6%
same,"viability, T/C","second compound 0.1 µM, first compound 10 µM",4.11%
same,"viability, T/C","second compound 0.316 µM, first compound 0.0316 µM",104%
same,"viability, T/C","second compound 0.316 µM, first compound 0.1 µM",43.5%
same,"viability, T/C","second compound 0.316 µM, first compound 0.316 µM",16.4%
same,"viability, T/C","second compound 0.316 µM, first compound 1 µM",8.37%
same,"viability, T/C","second compound 0.316 µM, first compound 3.16 µM",6.11%
same,"viability, T/C","second compound 0.316 µM, first compound 10 µM",3.68%
same,"viability, T/C","second compound 1 µM, first compound 0.0316 µM",95%
same,"viability, T/C","second compound 1 µM, first compound 0.1 µM",45.5%
same,"viability, T/C","second compound 1 µM, first compound 0.316 µM",13.2%
same,"viability, T/C","second compound 1 µM, first compound 1 µM",9.4%
same,"viability, T/C","second compound 1 µM, first compound 3.16 µM",5.77%
same,"viability, T/C","second compound 1 µM, first compound 10 µM",3.51%
same,"viability, T/C","second compound 3.16 µM, first compound 0.0316 µM",97.5%
same,"viability, T/C","second compound 3.16 µM, first compound 0.1 µM",45.8%
same,"viability, T/C","second compound 3.16 µM, first compound 0.316 µM",10.4%
same,"viability, T/C","second compound 3.16 µM, first compound 1 µM",9.18%
same,"viability, T/C","second compound 3.16 µM, first compound 3.16 µM",6.79%
same,"viability, T/C","second compound 3.16 µM, first compound 10 µM",4.13%
same,"viability, T/C","second compound 10 µM, first compound 0.0316 µM",83.4%
same,"viability, T/C","second compound 10 µM, first compound 0.1 µM",44%
same,"viability, T/C","second compound 10 µM, first compound 0.316 µM",15.1%
same,"viability, T/C","second compound 10 µM, first compound 1 µM",9.77%
same,"viability, T/C","second compound 10 µM, first compound 3.16 µM",7.49%
same,"viability, T/C","second compound 10 µM, first compound 10 µM",2.55%
CC(=O)O[C@H]1C(=O)[C@@]2(C)[C@H]([C@H](OC(=O)c3ccccc3)[C@]3(O)C[C@H](OC(=O)[C@H](O)[C@@H](NC(=O)c4ccccc4)c4ccccc4)C(C)=C1C3(C)C)[C@]1(OC(C)=O)CO[C@@H]1C[C@@H]2O + Nc1ccc(C#CCN(C(=O)Cc2ncc(C(F)(F)F)cc2C(F)(F)F)c2ccc(F)cc2)nn1,IC50,[1],< 9.49 nM
same,IC50,[2],< 9.49 nM
same,IC50,[3],< 9.49 nM
same,IC50,[4],< 9.49 nM
same,IC50,[5],< 9.49 nM
same,IC50,[6],< 9.49 nM
same,"viability, T/C","second compound 0.0316 µM, first compound 0.00949 µM",9.1%
same,"viability, T/C","second compound 0.0316 µM, first compound 0.03 µM",8.18%
same,"viability, T/C","second compound 0.0316 µM, first compound 0.0949 µM",10.3%
same,"viability, T/C","second compound 0.0316 µM, first compound 0.3 µM",9.92%
same,"viability, T/C","second compound 0.0316 µM, first compound 0.949 µM",7.22%
same,"viability, T/C","second compound 0.0316 µM, first compound 3 µM",9.23%
same,"viability, T/C","second compound 0.1 µM, first compound 0.00949 µM",12.1%
same,"viability, T/C","second compound 0.1 µM, first compound 0.03 µM",8.86%
same,"viability, T/C","second compound 0.1 µM, first compound 0.0949 µM",8.29%
same,"viability, T/C","second compound 0.1 µM, first compound 0.3 µM",9.07%
same,"viability, T/C","second compound 0.1 µM, first compound 0.949 µM",6.61%
same,"viability, T/C","second compound 0.1 µM, first compound 3 µM",8.93%
same,"viability, T/C","second compound 0.316 µM, first compound 0.00949 µM",10.2%
same,"viability, T/C","second compound 0.316 µM, first compound 0.03 µM",10%
same,"viability, T/C","second compound 0.316 µM, first compound 0.0949 µM",7.73%
same,"viability, T/C","second compound 0.316 µM, first compound 0.3 µM",7.49%
same,"viability, T/C","second compound 0.316 µM, first compound 0.949 µM",7.31%
same,"viability, T/C","second compound 0.316 µM, first compound 3 µM",7.76%
same,"viability, T/C","second compound 1 µM, first compound 0.00949 µM",9.77%
same,"viability, T/C","second compound 1 µM, first compound 0.03 µM",10.3%
same,"viability, T/C","second compound 1 µM, first compound 0.0949 µM",7.55%
same,"viability, T/C","second compound 1 µM, first compound 0.3 µM",9.06%
same,"viability, T/C","second compound 1 µM, first compound 0.949 µM",7.76%
same,"viability, T/C","second compound 1 µM, first compound 3 µM",9.17%
same,"viability, T/C","second compound 3.16 µM, first compound 0.00949 µM",14.2%
same,"viability, T/C","second compound 3.16 µM, first compound 0.03 µM",8.33%
same,"viability, T/C","second compound 3.16 µM, first compound 0.0949 µM",9.73%
same,"viability, T/C","second compound 3.16 µM, first compound 0.3 µM",9.4%
same,"viability, T/C","second compound 3.16 µM, first compound 0.949 µM",12.7%
same,"viability, T/C","second compound 3.16 µM, first compound 3 µM",10.1%
same,"viability, T/C","second compound 10 µM, first compound 0.00949 µM",12.2%
same,"viability, T/C","second compound 10 µM, first compound 0.03 µM",10.5%
same,"viability, T/C","second compound 10 µM, first compound 0.0949 µM",11.7%
same,"viability, T/C","second compound 10 µM, first compound 0.3 µM",9.8%
same,"viability, T/C","second compound 10 µM, first compound 0.949 µM",7.89%
same,"viability, T/C","second compound 10 µM, first compound 3 µM",9.4%
CCc1cc2c(N3CCc4c(cc(Cn5ccnc5)cc4-c4cn(C)nc4C(F)(F)F)C3=O)ccnc2c(OC)n1,"viability, T/C",compound 0.0316 µM,83.3% and 126% and 119%
same,"viability, T/C",compound 0.1 µM,84.9% and 133% and 116%
same,"viability, T/C",compound 0.316 µM,73.8% and 136% and 139%
same,"viability, T/C",compound 1 µM,74.3% and 100% and 104%
same,"viability, T/C",compound 3.16 µM,47.2% and 73.1% and 78.9%
same,"viability, T/C",compound 10 µM,32.6% and 47.8% and 46.6%
same,IC50,curve of compound,2870 nM and 9660 nM and 8960 nM
COC1C(OC(N)=O)C(O)C(Oc2ccc3c(O)c(NC(=O)c4ccc(O)c(CC=C(C)C)c4)c(=O)oc3c2C)OC1(C)C (configuration not stated),"viability, T/C",compound 0.0316 µM,105% [middle of 13 runs]
same,"viability, T/C",compound 0.1 µM,108% [middle of 13 runs]
same,"viability, T/C",compound 0.316 µM,111% [middle of 13 runs]
same,"viability, T/C",compound 1 µM,106% [middle of 13 runs]
same,"viability, T/C",compound 3.16 µM,104% [middle of 13 runs]
same,IC50,"compound alone, run of 01/08/2024",> 10000 nM
